Measured values from US20040258652A1, “Hair treatment compositions and hair after-treatment compositions for protection against damage by chemical treatment and for the repair of already damaged hair comprising as active substances alkylguanidine compounds” (GOLDSCHMIDT AG, priority 2003, published 2004).

How the values were obtained:
[1] = Force for the extension of individual damaged hairs by 15% before and after treatment (DiaStron Mtt670); design: species or system human; details: hair rinse A with 2.0% by weight of compound, pH 5, 30 min immersion, permanently waved and bleached Euro hair, measured wet, difference of 15% extension forces after and before treatment, at least 30 measurements
Description: Euro hair (hair from Europeans), left natural.
Preliminary Damage to the Hair
1×each permanent waving and bleaching using commercially available products.
Treatment of the damaged hair:
The damaged hair was treated with the exemplary formulations.
For each test formulation, 30 damp individual hairs were measured. The experimental procedure was as follows:
1. The predamaged hairs were wetted with water and using the fully automatic device Mtt670 from DiaStron the force was measured which was necessary for 15% extension.
2. For recovery, the hairs were immersed for at least 2 h in a water bath.
3. The hairs were then immersed for 30 min in the test formulation and then each hair was rinsed for about 7 s under running water.
4. The hairs were left overnight (=12 h) to dry in air.
5. The force which was necessary in order to extend the treated hair by 15% was again measured as described above, after wetting with water.
6. The difference between the 15% extension forces before and after treatment with the test formulation was calculated and used as a measure of the improvement in the mechanical resistivity of the damaged hairs by the alkylguanidine compounds.

[2] = Determination of the protein loss of predamaged hair (extraction with Na lauryl ether sulfate, UV absorption at 295 nm); design: species or system human; details: hair rinse of Tab. 3 with 2.0% active, pH 5.0, 30 min; predamaged hair (permanently waved and bleached); extraction with 8% Na lauryl ether sulfate 3 h at room temperature; at least three measurements
Text: The more severely damaged the hair, e.g., by permanent waving or bleaching, the higher the concentration of water-soluble protein fragments/peptides in the hair which can be extracted with water or surfactants. Extraction with surfactants simulates the washing of the hair by means of a shampoo. Also during hair washing, damaged hair loses more peptides than healthy hair.
For illustration, the hair was predamaged. For this, the hair was permanently waved and bleached 1×each
The predamaged strands of hair (weight: about 4 g) were immersed in the test formulation (time of action: 30 min) and then rinsed off for 1 min under running tap water (T=35° C.).
They were then left to dry in the air for 12 hours.
Determination of the Protein Loss:
About 0.5 g of hair+about 15 ml of Na lauryl ether sulfate (8%) were shaken at room temperature for 3 h. The solution was subsequently decanted and centrifuged. The protein concentration of the solution was then determined photometrically by measurement of the UV absorption at 295 nm. A keratin hydrolysate was used as a standard (M=1000, Promois WK-H, Seiwa Kasei).

| SMILES | Force 15%after force 15%before ([1]; Table 2B) [mN] | Force 15%after force 15%before ([1]; Table 2A) [mN] | Protein loss [2] |
| --- | --- | --- | --- |
| CC(=O)O.CCCCN(CCCC)C(=N)N [HSP A where R^1 = C4; R^2 = C4; acetate, N,N-dibutylguanidinium acetate] | 2.16 |  |  |
| CC(O)C(=O)O.CCCCCCCCNC(=N)N [HSP A where R^1 = H; R^2 = C8; lactate, octylguanidinium lactate] | 3.65 |  |  |
| CC(=O)O.CC(=O)O.N=C(N)NCCCCCCNC(=N)N [hexane-1,6-diguanidinium acetate] | 3.45 |  |  |
| CC(=O)O.CCCCCCCCNC(=N)N [HSP A where R^2 = C8, octylguanidinium acetate] |  | 3.51 | 26.8 mg/g of hair |
